Experimental data as given in patent US20230212131A1, “COLLAGEN 1 TRANSLATION INHIBITORS AND METHODS OF USE THEREOF” (Anima Biotech Inc., priority 2020, published 2023).

Tested on: collagen 1 (COL1)
Assay: WI-38 collagen 1 inhibition assay
Format: cell-based, human
Settings: Cellular EC50, WI-38 cells; values are classes of LogEC50
From the text: All compounds were profiled for cellular potency in inhibition of collagen 1 (COL1) protein translation using a phenotypic screening platform.
WI-38 cells (ATCC® CCL-75™) were maintained in MEM EAGLE (NEAA) W. GLUTAMIN (Biological Industries, Cat. 06-1040-15-1A) containing 10% fetal bovine serum (FBS) and 1% Penicillin-Streptomycin Solution. To synchronize the cells (cell cycle synchronization) prior to induction of collagen synthesis, the cells were starved using DMEM-low glucose supplemented with 0.25% FBS for two hours and then without FBS for 24 hours. To induce collagen synthesis, the cells were treated with a collagen induction cocktail for the indicated time. Compounds were added with induction.
Cells in 96-well or 384-well plates were fixed for 20 min in 4% paraformaldehyde (PFA, ENCO, Cat. sc-281692). Following two washes with 1×PBS, cells were treated with hydrogen peroxide (Acros, Cat: 7722-84-1) for 10 minutes and then washed twice with 1×PBS. Cells were then incubated over-night at 4° C. with Anti-Collagen I (Sigma-Aldrich, Cat: C 2456) antibody and washed three times with 1×PBS. Cells were then incubated with a suitable secondary fluorescently-tagged antibody and nuclei stained with DAPI, for 1 hour, and then washed 3 times with 1×PBS.
Cell images were taken with Operetta (Perkin Elmer, USA), a wide-field fluorescence microscope at 20× magnification. After acquisition, the images were transferred to Columbus software (Perkin-Elmer) for image analysis. In Columbus, cells were identified by their nucleus, using the “Find Nuceli” module and cytoplasm was detected based on the secondary antibody channel. Subsequently, the fluorescent signal was enumerated in the identified cell region. Data was exported to a data analysis and visualization software, Tibco Spotfire, USA.

Compound	COL1 Efficacy (LogEC50)
COCCOCc1ccccc1-c1csc(NC(=O)c2ccc(N3CCOCC3)cc2)n1 [Compound 379, N-(4-(2-((2-methoxyethoxy)methyl)phenyl)thiazol-2-yl)-4-morpholinobenzamide]	++ (++: −5 to −6)
O=C(Nc1nc(-c2ccccc2Cl)cs1)c1ccc(C2CCOCC2)cc1 [Compound 380, N-(4-(2-chlorophenyl)thiazol-2-yl)-4-(tetrahydro-2H-pyran-4-yl)benzamide]	+++ (+++: <−6)
O=C(Nc1nc(-c2ccccc2Cl)cs1)c1ccc(C2CCOCC2)cn1 [Compound 381, N-(4-(2-chlorophenyl)thiazol-2-yl)-5-(tetrahydro-2H-pyran-4-yl)picolinamide]	+++ (+++: <−6)
O=C(Nc1nc(-c2ccccc2Cl)cs1)c1ccc(C2CCS(=O)(=O)CC2)cn1 [Compound 383, N-(4-(2-chlorophenyl)thiazol-2-yl)-5-(1,1-dioxidotetrahydro-2H-thiopyran-4-yl)picolinamide]	+++ (+++: <−6)
O=C(Nc1nc(N2CCCC2=O)cs1)c1ccc(N2CCOCC2)cn1 [Compound 395, 5-morpholino-N-(4-(2-oxopyrrolidin-1-yl)thiazol-2-yl)picolinamide]	+ (+: >−5)
CN(C(=O)c1ccc(N2CCOCC2)cc1)c1nc(-c2ccccc2Cl)cs1 [Compound 399, N-(4-(2-chlorophenyl)thiazol-2-yl)-N-methyl-4-morpholinobenzamide]	++ (++: −5 to −6)
CN(C(=O)c1ccc(N2CCOCC2)cn1)c1nc(-c2ccccc2Cl)cs1 [Compound 400, N-(4-(2-chlorophenyl)thiazol-2-yl)-N-methyl-5-morpholinopicolinamide]	++ (++: −5 to −6)
CS(=O)(=O)N1CCN(c2ccc(C(=O)Nc3nc(-c4ccccc4Cl)cs3)nc2)CC1 [Compound 403, N-(4-(2-chlorophenyl)thiazol-2-yl)-5-(4-(methylsulfonyl)piperazin-1-yl)picolinamide]	+++ (+++: <−6)
O=C(Nc1nc(-c2ccccc2Cl)c[nH]1)c1ccc(N2CCOCC2)cn1 [Compound 404, N-(4-(2-chlorophenyl)-1H-imidazol-2-yl)-5-morpholinopicolinamide]	+++ (+++: <−6)
O=C(Nc1nc(-c2ccccc2Cl)cs1)c1ccc(N2CCOCC2)cc1Cl [Compound 409, 2-chloro-N-(4-(2-chlorophenyl)thiazol-2-yl)-4-morpholinobenzamide]	++ (++: −5 to −6)
Cc1cc(N2CCOCC2)ccc1C(=O)Nc1nc(-c2ccccc2Cl)cs1 [Compound 410, N-(4-(2-chlorophenyl)thiazol-2-yl)-2-methyl-4-morpholinobenzamide]	+++ (+++: <−6)
O=C(Nc1nc(-c2ccccc2Cl)cs1)c1ccc(N2CCOCC2)cc1C(F)(F)F [Compound 411, N-(4-(2-chlorophenyl)thiazol-2-yl)-4-morpholino-2-(trifluoromethyl)benzamide]	+++ (+++: <−6)
O=C(Nc1nc(-c2ccccc2Cl)cs1)C12CC(N3CCOCC3)(C1)C2 [Compound 416, N-(4-(2-chlorophenyl)thiazol-2-yl)-3-morpholinobicyclo[1.1.1]pentane-1-carboxamide]	++ (++: −5 to −6)
CS(=O)(=O)N1CCN(C23CC(C(=O)Nc4nc(-c5ccccc5Cl)cs4)(C2)C3)CC1 [Compound 418, N-(4-(2-chlorophenyl)thiazol-2-yl)-3-(4-(methylsulfonyl)piperazin-1-yl)bicyclo[1.1.1]pentane-1-carboxamide]	++ (++: −5 to −6)
O=C(Nc1nc(-c2ccccc2Cl)cs1)C1CC(N2CCOCC2)C1 (stereo not drawn) [Compound 421, (1s,3s)-N-(4-(2-chlorophenyl)thiazol-2-yl)-3-morpholinocyclobutane-1-carboxamide]	+ (+: >−5)
CS(=O)(=O)N1CCN(C(=O)[C@H]2C[C@H](C(=O)Nc3nc(-c4ccccc4Cl)cs3)C2)CC1 [Compound 430, (1r,3r)-N-(4-(2-chlorophenyl)thiazol-2-yl)-3-(4-(methylsulfonyl)piperazine-1-carbonyl)cyclobutane-1-carboxamide]	+ (+: >−5)
COc1cc(N2CCOCC2)ccc1C(=O)Nc1nc(-c2ccccc2Cl)cs1 [Compound 441, N-(4-(2-chlorophenyl)thiazol-2-yl)-2-methoxy-4-morpholinobenzamide]	++ (++: −5 to −6)

Compound	COL1 Efficacy (LogEC50)
CN(C)CC(=O)N1CCN(c2ccc(C(=O)Nc3nc(-c4ccccc4Cl)cs3)nc2)CC1 [Compound 443, N-(4-(2-chlorophenyl)thiazol-2-yl)-5-(4-(dimethylglycyl)piperazin-1-yl)picolinamide]	+++ (+++: <−6)
CN(C)CCC(=O)N1CCN(c2ccc(C(=O)Nc3nc(-c4ccccc4Cl)cs3)nc2)CC1 [Compound 444, N-(4-(2-chlorophenyl)thiazol-2-yl)-5-(4-(3-(dimethylamino)propanoyl)piperazin-1-yl)picolinamide]	+++ (+++: <−6)
O=C(Nc1nc(-c2ccccc2Cl)cs1)c1ccc(N2CCN(C(=O)CO)CC2)cn1 [Compound 445, N-(4-(2-chlorophenyl)thiazol-2-yl)-5-(4-(2-hydroxyacetyl)piperazin-1-yl)picolinamide]	+++ (+++: <−6)
O=C(Nc1nc(-c2ccccc2Cl)cs1)c1ccc(N2CCC(O)CC2)cn1 [Compound 446, N-(4-(2-chlorophenyl)thiazol-2-yl)-5-(4-hydroxypiperidin-1-yl)picolinamide]	+++ (+++: <−6)
COCc1ccccc1-c1csc(NC(=O)c2ccc(N3CCN(S(C)(=O)=O)CC3)cn2)n1 [Compound 447, N-(4-(2-(methoxymethyl)phenyl)thiazol-2-yl)-5-(4-(methylsulfonyl)piperazin-1-yl)picolinamide]	+++ (+++: <−6)
O=C(Nc1nc(-c2ccccc2Cl)cs1)c1ccc(N2CCC3(CC2)COC3)cn1 [Compound 448, N-(4-(2-chlorophenyl)thiazol-2-yl)-5-(2-oxa-7-azaspiro[3.5]nonan-7-yl)picolinamide]	+++ (+++: <−6)
COCC(=O)N1CC2(C1)CN(c1ccc(C(=O)Nc3nc(-c4ccccc4Cl)cs3)nc1)C2 [Compound 450, N-(4-(2-chlorophenyl)thiazol-2-yl)-5-(6-(2-methoxyacetyl)-2,6-diazaspiro[3.3]heptan-2-yl)picolinamide]	+++ (+++: <−6)
O=C(Nc1nc(-c2ccccc2Cl)cs1)c1ccc(N2CCN(C(=O)CCO)CC2)cn1 [Compound 455, N-(4-(2-chlorophenyl)thiazol-2-yl)-5-(4-(3-hydroxypropanoyl)piperazin-1-yl)picolinamide]	+++ (+++: <−6)
CN(C)Cc1ccccc1-c1csc(NC(=O)c2ccc(N3CCN(S(C)(=O)=O)CC3)cn2)n1 [Compound 460, N-(4-(2-((dimethylamino)methyl)phenyl)thiazol-2-yl)-5-(4-(methylsulfonyl)piperazin-1-yl)picolinamide hemiformate]	++ (++: −5 to −6)
CC(=O)N1CCN(c2csc(C(=O)Nc3nc(-c4ccccc4Cl)cs3)c2)CC1 [Compound 462, 4-(4-acetylpiperazin-1-yl)-N-(4-(2-chlorophenyl)thiazol-2-yl)thiophene-2-carboxamide]	++ (++: −5 to −6)
CC(=O)N1CCN(c2ccc(C(=O)Nc3nc(-c4ccccc4Cl)cs3)s2)CC1 [Compound 463, 5-(4-acetylpiperazin-1-yl)-N-(4-(2-chlorophenyl)thiazol-2-yl)thiophene-2-carboxamide]	+++ (+++: <−6)
CN1CCC[C@H]1C(=O)N1CCN(c2ccc(C(=O)Nc3nc(-c4ccccc4Cl)cs3)nc2)CC1 [Compound 466, N-(4-(2-chlorophenyl)thiazol-2-yl)-5-(4-(methylprolyl)piperazin-1-yl)picolinamide]	+++ (+++: <−6)
CN1CCCC(C(=O)N2CCN(c3ccc(C(=O)Nc4nc(-c5ccccc5Cl)cs4)nc3)CC2)C1 (stereo not drawn) [Compound 467, N-(4-(2-chlorophenyl)thiazol-2-yl)-5-(4-(1-methylpiperidine-3-carbonyl)piperazin-1-yl)picolinamide hemiformate]	+++ (+++: <−6)
COCc1ccccc1-c1csc(NC(=O)c2ccc(N3CCC(O)CC3)cn2)n1 [Compound 468, 5-(4-hydroxypiperidin-1-yl)-N-(4-(2-(methoxymethyl)phenyl)thiazol-2-yl)picolinamide]	+++ (+++: <−6)
CN1CCC(C(=O)N2CCN(c3ccc(C(=O)Nc4nc(-c5ccccc5Cl)cs4)nc3)CC2)C1 (stereo not drawn) [Compound 482, N-(4-(2-chlorophenyl)thiazol-2-yl)-5-(4-(1-methylpyrrolidine-3-carbonyl)piperazin-1-yl)picolinamide]	+++ (+++: <−6)
CN1CCC(C(=O)N2CCN(c3ccc(C(=O)Nc4nc(-c5ccccc5Cl)cs4)nc3)CC2)CC1 [Compound 483, N-(4-(2-chlorophenyl)thiazol-2-yl)-5-(4-(1-methylpiperidine-4-carbonyl)piperazin-1-yl)picolinamide]	+++ (+++: <−6)
